Assays:
[1] = molecular target: T1, Retinoic acid receptor alpha (Homo sapiens, UniProt P10276); assay: Apparent binding constant against Retinoic acid receptor alpha in HeLa cell GAl-4 transactivation assay; type: cell-based
T1 sequence (P10276 whole entry): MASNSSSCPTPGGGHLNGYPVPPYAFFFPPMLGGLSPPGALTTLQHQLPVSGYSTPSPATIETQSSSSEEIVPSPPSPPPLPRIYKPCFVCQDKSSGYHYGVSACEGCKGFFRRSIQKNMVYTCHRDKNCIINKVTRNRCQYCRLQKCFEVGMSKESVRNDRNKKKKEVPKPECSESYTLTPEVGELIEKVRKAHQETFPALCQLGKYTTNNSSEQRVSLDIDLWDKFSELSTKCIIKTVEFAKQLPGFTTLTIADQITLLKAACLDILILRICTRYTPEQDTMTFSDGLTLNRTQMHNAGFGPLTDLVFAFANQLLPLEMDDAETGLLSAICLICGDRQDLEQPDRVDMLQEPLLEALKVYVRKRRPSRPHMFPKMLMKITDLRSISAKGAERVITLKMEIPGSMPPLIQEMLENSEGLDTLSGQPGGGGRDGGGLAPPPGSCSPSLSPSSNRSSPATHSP

[2] = molecular target: T2, Retinoic acid receptor beta (Homo sapiens, UniProt P10826); assay: Apparent binding constant for Retinoic acid receptor beta in HeLa cellGAL-4 transactivation assay; type: cell-based
T2 sequence (P10826 whole entry): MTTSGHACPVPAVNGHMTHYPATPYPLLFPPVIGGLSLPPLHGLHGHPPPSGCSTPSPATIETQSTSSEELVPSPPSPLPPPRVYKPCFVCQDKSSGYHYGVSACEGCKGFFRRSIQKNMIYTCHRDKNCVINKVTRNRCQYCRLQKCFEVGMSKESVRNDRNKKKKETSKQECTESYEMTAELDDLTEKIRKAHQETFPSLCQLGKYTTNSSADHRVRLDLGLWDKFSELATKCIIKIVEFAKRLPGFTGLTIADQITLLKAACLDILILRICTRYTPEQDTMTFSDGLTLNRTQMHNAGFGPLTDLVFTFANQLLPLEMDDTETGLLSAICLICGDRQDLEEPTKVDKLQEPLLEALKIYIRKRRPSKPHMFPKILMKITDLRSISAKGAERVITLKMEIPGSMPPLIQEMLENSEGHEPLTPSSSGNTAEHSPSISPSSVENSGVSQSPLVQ

- Kd [1]: 11 µM
- Kd [2]: 1.27 µM
Structure (SMILES): CC1(C)CCC(C)(C)c2cc(/C(=N/NS(C)(=O)=O)c3ccc4cc(C(=O)O)ccc4c3)ccc21

— ChEMBL document CHEMBL1129343, “Retinoic acid receptor beta,gamma-selective ligands: synthesis and biological activity of 6-substituted 2-naphthoic acid retinoids” (J Med Chem, 1996)
